Reference: ChEMBL document CHEMBL1201861, “Genomics of Drug Sensitity in Cancer screening data, Wellcome Trust Sanger Institute”

Tests used:
Test in all cases: cells
CaR-1 = assay type: functional, cell-based, Homo sapiens; conditions: Homo sapiens, CaR-1
Description: SANGER: Inhibition of human CaR-1 cell growth in a cell viability assay.

ChaGo-K-1 = assay type: functional, cell-based; conditions: Homo sapiens
Description: SANGER: Inhibition of human ChaGo-K-1 cell growth in a cell viability assay.

DMS-273 = assay type: functional, cell-based, Homo sapiens; conditions: Homo sapiens, DMS-273
Description: SANGER: Inhibition of human DMS-273 cell growth in a cell viability assay.

DOHH-2 = assay type: functional, cell-based; conditions: Homo sapiens
Description: SANGER: Inhibition of human DOHH-2 cell growth in a cell viability assay.

DU-145 = assay type: functional, cell-based, Homo sapiens; conditions: Homo sapiens, DU-145
Description: SANGER: Inhibition of human DU-145 cell growth in a cell viability assay.

EKVX = assay type: functional, cell-based, Homo sapiens; conditions: Homo sapiens, EKVX
Description: SANGER: Inhibition of human EKVX cell growth in a cell viability assay.

EW-3 = assay type: functional, cell-based; conditions: Homo sapiens
Description: SANGER: Inhibition of human EW-3 cell growth in a cell viability assay.

HCC 2998 = assay type: functional, cell-based, Homo sapiens; conditions: Homo sapiens, HCC 2998
Description: SANGER: Inhibition of human HCC2998 cell growth in a cell viability assay.

HCC38 = assay type: functional, cell-based, Homo sapiens; conditions: Homo sapiens, HCC38
Description: SANGER: Inhibition of human HCC38 cell growth in a cell viability assay.

HDLM-2 = assay type: functional, cell-based; conditions: Homo sapiens
Description: SANGER: Inhibition of human HDLM-2 cell growth in a cell viability assay.

HN = assay type: functional, cell-based, Homo sapiens; conditions: Homo sapiens, HN
Description: SANGER: Inhibition of human HN cell growth in a cell viability assay.

HT-29 = assay type: functional, cell-based, Homo sapiens; conditions: Homo sapiens, HT-29
Description: SANGER: Inhibition of human HT-29 cell growth in a cell viability assay.

HTC-C3 = assay type: functional, cell-based, Homo sapiens; conditions: Homo sapiens, HTC-C3
Description: SANGER: Inhibition of human HTC-C3 cell growth in a cell viability assay.

IGROV-1 = assay type: functional, cell-based, Homo sapiens; conditions: Homo sapiens, IGROV-1
Description: SANGER: Inhibition of human IGROV-1 cell growth in a cell viability assay.

KALS-1 = assay type: functional, cell-based, Homo sapiens; conditions: Homo sapiens, KALS-1
Description: SANGER: Inhibition of human KALS-1 cell growth in a cell viability assay.

KNS-81-FD = assay type: functional, cell-based, Homo sapiens; conditions: Homo sapiens, KNS-81-FD
Description: SANGER: Inhibition of human KNS-81-FD cell growth in a cell viability assay.

KP-N-YS = assay type: functional, cell-based; conditions: Homo sapiens
Description: SANGER: Inhibition of human KP-N-YS cell growth in a cell viability assay.

KYSE-510 = assay type: functional, cell-based, Homo sapiens; conditions: Homo sapiens, KYSE-510
Description: SANGER: Inhibition of human KYSE-510 cell growth in a cell viability assay.

LB1047-RCC = assay type: functional, cell-based, Homo sapiens; conditions: Homo sapiens, LB1047-RCC
Description: SANGER: Inhibition of human LB1047-RCC cell growth in a cell viability assay.

LB831-BLC = assay type: functional, cell-based, Homo sapiens; conditions: Homo sapiens, LB831-BLC
Description: SANGER: Inhibition of human LB831-BLC cell growth in a cell viability assay.

LCLC-103H cell line = assay type: functional, cell-based, Homo sapiens; conditions: Homo sapiens, LCLC-103H
Description: SANGER: Inhibition of human LCLC-103H cell growth in a cell viability assay.

NB10 = assay type: functional, cell-based, Homo sapiens; conditions: Homo sapiens, NB10
Description: SANGER: Inhibition of human NB10 cell growth in a cell viability assay.

NCI-H1299 = assay type: functional, cell-based, Homo sapiens; conditions: Homo sapiens, NCI-H1299
Description: SANGER: Inhibition of human NCI-H1299 cell growth in a cell viability assay.

NCI-H2030 = assay type: functional, cell-based, Homo sapiens; conditions: Homo sapiens, NCI-H2030
Description: SANGER: Inhibition of human NCI-H2030 cell growth in a cell viability assay.

NCI-H28 = assay type: functional, cell-based, Homo sapiens; conditions: Homo sapiens, NCI-H28
Description: SANGER: Inhibition of human NCI-H28 cell growth in a cell viability assay.

NCI-H69 = assay type: functional, cell-based; conditions: Homo sapiens
Description: SANGER: Inhibition of human NCI-H69 cell growth in a cell viability assay.

NH-12 = assay type: functional, cell-based, Homo sapiens; conditions: Homo sapiens, NH-12
Description: SANGER: Inhibition of human NH-12 cell growth in a cell viability assay.

NOS-1 = assay type: functional, cell-based, Homo sapiens; conditions: Homo sapiens, NOS-1
Description: SANGER: Inhibition of human NOS-1 cell growth in a cell viability assay.

NY = assay type: functional, cell-based, Homo sapiens; conditions: Homo sapiens, NY
Description: SANGER: Inhibition of human NY cell growth in a cell viability assay.

OAW-42 = assay type: functional, cell-based, Homo sapiens; conditions: Homo sapiens, OAW-42
Description: SANGER: Inhibition of human OAW-42 cell growth in a cell viability assay.

RKO = assay type: functional, cell-based, Homo sapiens; conditions: Homo sapiens, RKO
Description: SANGER: Inhibition of human RKO cell growth in a cell viability assay.

RPMI-8226 = assay type: functional, cell-based; conditions: Homo sapiens
Description: SANGER: Inhibition of human RPMI-8226 cell growth in a cell viability assay.

SK-LMS-1 = assay type: functional, cell-based, Homo sapiens; conditions: Homo sapiens, SK-LMS-1
Description: SANGER: Inhibition of human SK-LMS-1 cell growth in a cell viability assay.

SK-MEL-28 = assay type: functional, cell-based; conditions: Homo sapiens
Description: SANGER: Inhibition of human SK-MEL-28 cell growth in a cell viability assay.

SK-MEL-30 = assay type: functional, cell-based; conditions: Homo sapiens
Description: SANGER: Inhibition of human SK-MEL-30 cell growth in a cell viability assay.

SK-N-AS = assay type: functional, cell-based, Homo sapiens; conditions: Homo sapiens, SK-N-AS
Description: SANGER: Inhibition of human SK-N-AS cell growth in a cell viability assay.

SW1417 = assay type: functional, cell-based, Homo sapiens; conditions: Homo sapiens, SW1417
Description: SANGER: Inhibition of human SW1417 cell growth in a cell viability assay.

SW948 = assay type: functional, cell-based, Homo sapiens; conditions: Homo sapiens, SW948
Description: SANGER: Inhibition of human SW948 cell growth in a cell viability assay.

SW 954 = assay type: functional, cell-based, Homo sapiens; conditions: Homo sapiens, SW 954
Description: SANGER: Inhibition of human SW954 cell growth in a cell viability assay.

647-V = assay type: functional, cell-based, Homo sapiens; conditions: Homo sapiens, 647-V
Description: SANGER: Inhibition of human 647-V cell growth in a cell viability assay.

A101D = assay type: functional, cell-based, Homo sapiens; conditions: Homo sapiens, A101D
Description: SANGER: Inhibition of human A101D cell growth in a cell viability assay.

A3-KAW = assay type: functional, cell-based; conditions: Homo sapiens
Description: SANGER: Inhibition of human A3-KAW cell growth in a cell viability assay.

A4-Fuk = assay type: functional, cell-based; conditions: Homo sapiens
Description: SANGER: Inhibition of human A4-Fuk cell growth in a cell viability assay.

AGS = assay type: functional, cell-based, Homo sapiens; conditions: Homo sapiens, AGS
Description: SANGER: Inhibition of human AGS cell growth in a cell viability assay.

ATN-1 = assay type: functional, cell-based; conditions: Homo sapiens
Description: SANGER: Inhibition of human ATN-1 cell growth in a cell viability assay.

BFTC-909 = assay type: functional, cell-based, Homo sapiens; conditions: Homo sapiens, BFTC-909
Description: SANGER: Inhibition of human BFTC-909 cell growth in a cell viability assay.

BHY = assay type: functional, cell-based, Homo sapiens; conditions: Homo sapiens, BHY
Description: SANGER: Inhibition of human BHY cell growth in a cell viability assay.

C8166 = assay type: functional, cell-based; conditions: Homo sapiens
Description: SANGER: Inhibition of human C8166 cell growth in a cell viability assay.

UMC-11 = assay type: functional, cell-based, Homo sapiens; conditions: Homo sapiens, UMC-11
Description: SANGER: Inhibition of human UMC-11 cell growth in a cell viability assay.

no-10 = assay type: functional, cell-based, Homo sapiens; conditions: Homo sapiens
Description: SANGER: Inhibition of human no-10 cell growth in a cell viability assay.

CAS-1 = assay type: functional, cell-based, Homo sapiens; conditions: Homo sapiens, CAS-1
Description: SANGER: Inhibition of human CAS-1 cell growth in a cell viability assay.

COLO-680N = assay type: functional, cell-based, Homo sapiens; conditions: Homo sapiens, COLO-680N
Description: SANGER: Inhibition of human COLO-680N cell growth in a cell viability assay.

## O=C(NOCC1CC1)c1ccc(F)c(F)c1Nc1ccc(I)cc1Cl [CI-1040]
CaR-1
  IC50: > 10000 nM
ChaGo-K-1
  IC50: > 10000 nM
DMS-273
  IC50: > 10000 nM
DOHH-2
  IC50: 8200 nM
DU-145
  IC50: > 10000 nM
EKVX
  IC50: > 10000 nM
EW-3
  IC50: > 10000 nM
HCC 2998
  IC50: 5490 nM
HCC38
  IC50: > 10000 nM
HDLM-2
  IC50: > 10000 nM
HN
  IC50: 2160 nM
HT-29
  IC50: 5980 nM
HTC-C3
  IC50: 465 nM
IGROV-1
  IC50: 4450 nM
KALS-1
  IC50: > 10000 nM
KNS-81-FD
  IC50: > 10000 nM
KP-N-YS
  IC50: > 10000 nM
KYSE-510
  IC50: > 10000 nM
LB1047-RCC
  IC50: 4740 nM
LB831-BLC
  IC50: > 10000 nM
LCLC-103H cell line
  IC50: > 10000 nM
NB10
  IC50: 5890 nM
NCI-H1299
  IC50: > 10000 nM
NCI-H2030
  IC50: > 10000 nM
NCI-H28
  IC50: > 10000 nM
NCI-H69
  IC50: > 10000 nM
NH-12
  IC50: 4720 nM
NOS-1
  IC50: > 10000 nM
NY
  IC50: > 10000 nM
OAW-42
  IC50: > 10000 nM
RKO
  IC50: 8890 nM
RPMI-8226
  IC50: > 10000 nM
SK-LMS-1
  IC50: > 10000 nM
SK-MEL-28
  IC50: 304 nM
SK-MEL-30
  IC50: 7250 nM
SK-N-AS
  IC50: 1080 nM
SW1417
  IC50: 9570 nM
SW948
  IC50: > 10000 nM
SW 954
  IC50: 8970 nM
647-V
  IC50: > 10000 nM
A101D
  IC50: 214 nM
A3-KAW
  IC50: > 10000 nM
A4-Fuk
  IC50: 1570 nM
AGS
  IC50: 117 nM
ATN-1
  IC50: > 10000 nM
BFTC-909
  IC50: > 10000 nM
BHY
  IC50: > 10000 nM
C8166
  IC50: > 10000 nM
UMC-11
  IC50: > 10000 nM
no-10
  IC50: > 10000 nM
CAS-1
  IC50: > 10000 nM
COLO-680N
  IC50: > 10000 nM

## Nc1ccn([C@@H]2O[C@H](CO)[C@@H](O)[C@@H]2O)c(=O)n1 [CYTARABINE]
CaR-1
  IC50: > 2000 nM
ChaGo-K-1
  IC50: > 2000 nM
DMS-273
  IC50: 1460 nM
DOHH-2
  IC50: 1380 nM
DU-145
  IC50: > 2000 nM
EKVX
  IC50: > 2000 nM
EW-3
  IC50: 830 nM
HCC 2998
  IC50: > 2000 nM
HCC38
  IC50: 1880 nM
HDLM-2
  IC50: > 2000 nM
HN
  IC50: 221 nM
HT-29
  IC50: > 2000 nM
HTC-C3
  IC50: 459 nM
IGROV-1
  IC50: 1790 nM
KALS-1
  IC50: > 2000 nM
KNS-81-FD
  IC50: > 2000 nM
KP-N-YS
  IC50: > 2000 nM
KYSE-510
  IC50: 306 nM
LB1047-RCC
  IC50: 108 nM
LB831-BLC
  IC50: > 2000 nM
LCLC-103H cell line
  IC50: > 2000 nM
NB10
  IC50: 188 nM
NCI-H1299
  IC50: 672 nM
NCI-H2030
  IC50: 1050 nM
NCI-H28
  IC50: 1820 nM
NCI-H69
  IC50: > 2000 nM
NH-12
  IC50: 1160 nM
NOS-1
  IC50: 1910 nM
NY
  IC50: > 2000 nM
OAW-42
  IC50: 1250 nM
RKO
  IC50: 599 nM
RPMI-8226
  IC50: > 2000 nM
SK-LMS-1
  IC50: > 2000 nM
SK-MEL-28
  IC50: 799 nM
SK-MEL-30
  IC50: > 2000 nM
SK-N-AS
  IC50: 450 nM
SW1417
  IC50: > 2000 nM
SW948
  IC50: > 2000 nM
SW 954
  IC50: > 2000 nM
647-V
  IC50: 1230 nM
A101D
  IC50: > 2000 nM
A3-KAW
  IC50: 844 nM
A4-Fuk
  IC50: 1170 nM
AGS
  IC50: 918 nM
ATN-1
  IC50: 366 nM
BFTC-909
  IC50: 357 nM
BHY
  IC50: 898 nM
C8166
  IC50: > 2000 nM
UMC-11
  IC50: > 2000 nM
no-10
  IC50: > 2000 nM
CAS-1
  IC50: > 2000 nM
COLO-680N
  IC50: > 2000 nM
